Measured values as given in ChEMBL document CHEMBL5385858, “Identification of novel Pyrrolo[2,3-d]Pyrimidine-based KRAS G12C inhibitors with anticancer effects” (Eur J Med Chem, 2023).
Active and inactive are the calls of the source. No cut-off for these calls is given here.

Columns and labels:
[1] = system: GTPase KRas (Homo sapiens), P01116 [G12C]; assay: Inhibition of KRAS G12C mutant RBD in human NCI-H358 cells upto 1 uM in presence of GTP by pull-down assay; assay type: cell-based; conditions: time 24.0 hrs, TDE = time-dependent effect
Sequence of GTPase KRas (Homo sapiens), P01116 [G12C] (P01116 whole entry G12C): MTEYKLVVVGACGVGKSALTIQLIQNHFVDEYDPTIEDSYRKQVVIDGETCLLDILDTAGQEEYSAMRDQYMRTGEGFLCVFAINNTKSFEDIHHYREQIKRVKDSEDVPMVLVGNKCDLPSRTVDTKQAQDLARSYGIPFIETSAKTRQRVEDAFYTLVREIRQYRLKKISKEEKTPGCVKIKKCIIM

[2] = system: GTPase KRas (Homo sapiens), P01116 [G12C]; assay: Inhibition of KRAS G12C mutant in human NCI-H358 cells assessed as decrease in ERK phosphorylation upto 5 uM by Western blot analysis; assay type: cell-based; conditions: time 2-72 hrs, TDE = time-dependent effect
[3] = system: GTPase KRas (Homo sapiens), P01116 [G12C]; assay: Inhibition of KRAS G12C mutant in human NCI-H358 cells assessed as decrease in AKT phosphorylation incubated for 2 to 72 hrs by Western blot analysis; assay type: cell-based; conditions: time 2-72 hrs
[4] = system: GTPase KRas (Homo sapiens), P01116 [G12C]; assay: Inhibition of KRAS G12C mutant in human NCI-H358 cells assessed as decrease in AKT phosphorylation upto 5 uM by Western blot analysis; assay type: cell-based; conditions: time 2-72 hrs, TDE = time-dependent effect
NCI-H358 [5] = assay: Antiproliferative activity against human NCI-H358 cells harboring KRAS G12C mutant assessed as inhibition of cell proliferation incubated for 3 days by CCK8 assay; assay type: functional, cell-based; conditions: NCI-H358, 72 h
NCI-H1975 = assay: Antiproliferative activity against human NCI-H1975 cells harboring wild-type KRAS assessed as inhibition of cell proliferation incubated for 3 days by CCK8 assay; assay type: functional, cell-based; conditions: NCI-H1975, 72 h
NCI-H358 [6] = assay: Induction of apoptosis in human NCI-H358 cells assessed as viable cells at 0.1 uM incubated for 24 hrs by Annexin V-FITC/PI staining based flow cytometry (reference value: 91.4 %); assay type: functional; conditions: Homo sapiens, NCI-H358, read-out: Activity
NCI-H358 [7] = assay: Induction of apoptosis in human NCI-H358 cells assessed as necrotic cells at 0.1 uM incubated for 24 hrs by Annexin V-FITC/PI staining based flow cytometry (reference value: 1.88 %); assay type: functional
NCI-H358 [8] = assay: Induction of apoptosis in human NCI-H358 cells assessed as viable cells at 0.3 uM incubated for 24 hrs by Annexin V-FITC/PI staining based flow cytometry (reference value: 91.4 %); assay type: functional; conditions: read-out: Activity
NCI-H358 [9] = assay: Induction of apoptosis in human NCI-H358 cells assessed as early apoptotic cells at 0.3 uM incubated for 24 hrs by Annexin V-FITC/PI staining based flow cytometry (reference value: 5.4 %); assay type: functional
NCI-H358 [10] = assay: Induction of apoptosis in human NCI-H358 cells assessed as necrotic cells at 0.3 uM incubated for 24 hrs by Annexin V-FITC/PI staining based flow cytometry (reference value: 1.88 %); assay type: functional
NCI-H358 [11] = assay: Induction of apoptosis in human NCI-H358 cells assessed as viable cells at 0.5 uM incubated for 24 hrs by Annexin V-FITC/PI staining based flow cytometry (reference value: 91.4 %); assay type: functional; conditions: read-out: Activity
NCI-H358 [12] = assay: Induction of apoptosis in human NCI-H358 cells assessed as late apoptotic cells at 0.5 uM incubated for 24 hrs by Annexin V-FITC/PI staining based flow cytometry (reference value: 1.32 %); assay type: functional
NCI-H358 [13] = assay: Induction of apoptosis in human NCI-H358 cells assessed as necrotic cells at 0.5 uM incubated for 24 hrs by Annexin V-FITC/PI staining based flow cytometry (reference value: 1.88 %); assay type: functional
NCI-H358 [14] = assay: Induction of apoptosis in human NCI-H358 cells assessed as necrotic cells at 1 uM incubated for 24 hrs by Annexin V-FITC/PI staining based flow cytometry (reference value: 1.88 %); assay type: functional
NCI-H358 [15] = assay: Induction of apoptosis in human NCI-H358 cells assessed as increase in cleaved caspase-7 level upto 5 uM incubated for 24 hrs by Western blot analysis; assay type: functional, cell-based
NCI-H358 [16] = assay: Antiproliferative activity against human NCI-H358 cells assessed as inhibition of cell proliferation at 0.03 uM incubated for 14 days by crystal violet staining based colony formation assay; assay type: functional; conditions: time 14.0 day
NCI-H358 [17] = assay: Inhibition of cell migration in human NCI-H358 cells at 0.1 to 1 uM measured for 48 hrs by wound scratch assay; assay type: functional, cell-based; conditions: dose 0.1-1 µM
NCI-H358 [18] = assay: Inhibition of cell invasion in human NCI-H358 cells measured for 24 hrs by transwell assay; assay type: functional, cell-based
[19] = AUC (0 to t) in ICR mouse at 3 mg/kg, iv measured for 24 hrs by LC-MS/MS analysis; assay type: ADME, organism-based; design: dose 3 mg/kg, time 24 hrs, route iv; conditions: in vivo
[20] = AUC (0 to infinity) in ICR mouse at 3 mg/kg, iv measured for 24 hrs by LC-MS/MS analysis; assay type: ADME, organism-based; design: dose 3 mg/kg, time 24 hrs, route iv; conditions: in vivo
[21] = Half life in ICR mouse at 3 mg/kg, iv measured for 24 hrs by LC-MS/MS analysis; assay type: ADME, organism-based; conditions: in vivo
[22] = Volume of distribution at steady state in ICR mouse at 3 mg/kg, iv measured for 24 hrs by LC-MS/MS analysis; assay type: ADME, organism-based; conditions: in vivo, read-out: Vdss
[23] = Clearance in ICR mouse at 3 mg/kg, iv measured for 24 hrs by LC-MS/MS analysis; assay type: ADME, organism-based; conditions: in vivo
[24] = Tmax in ICR mouse at 30 mg/kg, po measured for 24 hrs by LC-MS/MS analysis; assay type: ADME, organism-based; conditions: in vivo
NCI-H358 [25] = assay: Antitumor activity in human NCI-H358 cells xenografted in BALB/c-nu/nu mouse assessed as tumor regression at 30 mg/kg, po qd treated for 20 days; assay type: functional, organism-based; conditions: time 20.0 day
[26] = Toxicity in BALB/c-nu/nu mouse xenografted with human NCI-H358 cells assessed as drug tolerance at 10 to 30 mg/kg, po qd treated for 20 days; assay type: organism-based; conditions: in vivo, 480 h, dose 10-30 mg/kg, time 20 day
[27] = Toxicity in BALB/c-nu/nu mouse xenografted with human NCI-H358 cells assessed as morphological damage in heart at 10 to 30 mg/kg, po qd treated for 20 days; assay type: organism-based; conditions: in vivo, 480 h, dose 10-30 mg/kg, time 20 day
[28] = Toxicity in BALB/c-nu/nu mouse xenografted with human NCI-H358 cells assessed as morphological damage in kidney at 10 to 30 mg/kg, po qd treated for 20 days; assay type: organism-based; conditions: in vivo, 480 h, dose 10-30 mg/kg, time 20 day
NCI-H358 [29] = assay: In vivo inhibition of KRAS G12C mutant in human NCI-H358 cells xenografted in BALB/c-nu/nu mouse assessed as decrease in ERK phosphorylation at 10 to 30 mg/kg, po qd treated for 20 days by Western blot analysis; assay type: functional, organism-based; conditions: dose 10-30 mg/kg, time 20.0 day
NCI-H358 [30] = assay: In vivo inhibition of KRAS G12C mutant in human NCI-H358 cells xenografted in BALB/c-nu/nu mouse assessed as decrease in AKT phosphorylation at 10 to 30 mg/kg, po qd treated for 20 days by Western blot analysis; assay type: functional, organism-based; conditions: dose 10-30 mg/kg, time 20.0 day
[31] = Toxicity in BALB/c-nu/nu mouse xenografted with human NCI-H358 cells assessed as histological change in heart at 10 to 30 mg/kg, po qd treated for 20 days by H and E staining based analysis; assay type: organism-based; conditions: in vivo, 480 h, dose 10-30 mg/kg, time 20 day
[32] = Toxicity in BALB/c-nu/nu mouse xenografted with human NCI-H358 cells assessed as histological change in liver at 10 to 30 mg/kg, po qd treated for 20 days by H and E staining based analysis; assay type: organism-based; conditions: in vivo, 480 h, dose 10-30 mg/kg, time 20 day

inhibition [1]: Tde | inhibition [2]: Tde | inhibition [3]: Dose-Dependent Effect | inhibition [4]: Tde | IC50 (NCI-H358 [5]): 0.16 µM | IC50 (NCI-H1975): 7.91 µM | AUC(0-t) at 24 h [19]: 801 ng·h/mL | AUC(0-inf) [20]: 804 ng·h/mL | half-life [21]: 55.8 min | Vd [22]: 4.98 L/kg | clearance [23]: 62.3 mL/min/kg | Tmax [24]: 4.98 min
Structure (SMILES): C=CC(=O)N1CCN(c2nc(OC[C@@]34CCCN3C[C@H](F)C4)nc3c2cc(-c2cccc4cccc(C)c24)n3C)C[C@@H]1CC#N
viability at 0.1 µM (NCI-H358 [6]): 84.6% | Activity (NCI-H358 [7]): 1.17% | viability at 0.3 µM (NCI-H358 [8]): 83.2% | Activity (NCI-H358 [9]): 11.8% | Activity (NCI-H358 [10]): 1.06% | viability at 0.5 µM (NCI-H358 [11]): 79% | Activity (NCI-H358 [12]): 6.26% | Activity (NCI-H358 [13]): 0.8% | Activity (NCI-H358 [14]): 1.03% | Activity (NCI-H358 [15]): Active | inhibition (NCI-H358 [16]): Active | Activity (NCI-H358 [17]): Active | Activity (NCI-H358 [18]): Dose-Dependent Effect | Activity (NCI-H358 [25]): Active | Activity [26]: Non-Toxic | Activity [27]: Non-Toxic | Activity [28]: Non-Toxic | inhibition (NCI-H358 [29]): Active | inhibition (NCI-H358 [30]): Active | Activity [31]: Non-Toxic | Activity [32]: Non-Toxic
